According to article PMC7613620, “Reaction hijacking of tyrosine tRNA synthetase as a whole-of-life-cycle antimalarial strategy” (Science (New York, N.Y.), 2022):
Read-outs that look alike come from different tables or passages of the source.

How the values were obtained:
PfYRS = PfYRS (Plasmodium falciparum, UniProt Q8IAR7); assay: biochemical; type: binding
Description: (§1) 804 An intron was detected in the PftRNATyr sequence, that was not indicated in PlasmoDB. A T7 RNA
(§2) 805 polymerase promoter sequence was added to the 5’ end of the DNA sequence of P. falciparum and H.
(§3) 806 sapiens tRNATyr. This DNA template and its complementary strand were custom-synthesized by Sigma-
(§4) 807 Aldrich. Two oligonucleotides were annealed at 95°C for 5 min and the double-stranded DNA template
(§5) 808 was used for in vitro transcription. The transcription reaction was incubated at 37°C overnight. The reaction
(§6) 809 mixture consists of template DNA, T7 RNA polymerase and NTP mix as per manufacturer's instructions
(§7) 810 (HiScribe™ T7 Quick High Yield RNA Synthesis Kit, NEB). On the following day, the reaction mixture
(§8) 811 was treated with DNase I at 37°C for 15 min. tRNA was purified using RNA clean-up spin columns
(§9) 812 (Monarch® RNA Cleanup Kit, NEB) to remove contaminants from the transcription reaction.
(§10) 814 Differential scanning fluorimetry (DSF)
(§11) 815 PfYRS and HsYRS at 0.1 mg/ml were incubated with various substrates at 37°C for 1-3 h. PfYRS was
(§12) 816 assayed in 25 mM Tris, pH 8, 150 mM NaCl, 5 mM MgCl2 and 1 mM TCEP. HsYRS was assayed in 50
(§13) 817 mM Tris, pH 7.5, 150 mM NaCl, 50 mM KCl, 5 mM MgCl2 and 1 mM TCEP. SYPRO Orange (Sigma-
(§14) 818 Aldrich; 5,000X concentrate in DMSO) was added to the reaction mixture at a final concentration of 2.5X.
(§15) 819 25 µL of the sample was added into each well of a 96-well qPCR plate (Applied Biosystems). The plate
(§16) 820 was sealed and analysed using StepOnePlus Real-Time PCR system (Applied Biosystems). The samples
(§17) 821 were heated from 20°C to 90°C with a 1% continuous gradient. The thermal unfolding curve was plotted
(§18) 822 as the first derivative curve of the raw fluorescence values. The melting temperature (Tm), defined as the
(§19) 823 peak of the first derivative curve, was used to assess the thermal stability of protein-ligand complexes. KD
(§20) 824 values were calculated from DTm using the equation: ln(KD/[L]) = -131.5 x (∆Tm/Tm,apo) - 1.9, where [L]
(§21) 825 is the concentration of ligand and T is the temperature in Kelvin (40). […]

PfYRSS234C = PfYRSS234C (Plasmodium falciparum, UniProt Q8IAR7, S234C); assay: biochemical; type: binding
Chain of PfYRSS234C (Q8IAR7 whole entry S234C): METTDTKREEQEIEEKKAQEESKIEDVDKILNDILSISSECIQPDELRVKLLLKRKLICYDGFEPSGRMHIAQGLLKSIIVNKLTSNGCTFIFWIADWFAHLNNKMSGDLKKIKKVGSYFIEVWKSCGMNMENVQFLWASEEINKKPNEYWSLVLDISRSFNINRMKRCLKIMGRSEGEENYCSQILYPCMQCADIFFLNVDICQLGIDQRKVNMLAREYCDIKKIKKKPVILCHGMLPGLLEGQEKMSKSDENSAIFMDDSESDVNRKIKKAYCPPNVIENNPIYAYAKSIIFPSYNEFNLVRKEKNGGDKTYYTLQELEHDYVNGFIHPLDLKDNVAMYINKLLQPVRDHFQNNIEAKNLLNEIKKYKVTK
Description: as §1, §2, §3, §4, §5, §6, §7, §8, §9, §10, §11, §12, §13, §14, §15, §16, §17, §18, §19, §20, §21

HsYRS = molecular target: T1, HsYRS (Homo sapiens, UniProt P54577); assay: Differential scanning fluorimetry, HsYRS; type: binding
T1 construct: made in house; host or cells: E. coli BL21(DE3), pET-11a
T1 sequence (P54577 1-364): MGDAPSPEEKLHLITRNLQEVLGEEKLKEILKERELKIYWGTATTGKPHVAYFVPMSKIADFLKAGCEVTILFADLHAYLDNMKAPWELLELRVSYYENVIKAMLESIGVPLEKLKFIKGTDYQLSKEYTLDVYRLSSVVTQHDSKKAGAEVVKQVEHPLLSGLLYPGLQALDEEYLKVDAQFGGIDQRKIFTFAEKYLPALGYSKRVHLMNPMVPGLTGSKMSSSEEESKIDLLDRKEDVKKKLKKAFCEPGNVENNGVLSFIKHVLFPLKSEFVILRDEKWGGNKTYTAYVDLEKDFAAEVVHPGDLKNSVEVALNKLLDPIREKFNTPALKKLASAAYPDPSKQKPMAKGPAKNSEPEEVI
Description: This DNA template and its complementary strand were custom-synthesized by Sigma-
as §7, §16
The thermal unfolding curve was plotted
The melting temperature (Tm), defined as the
Reactions were conducted in 50 mM Tris-
Reactions were conducted in 50 mM Tris-HCL, pH 7.6,

P. falciparum (3D7) = P. falciparum (3D7) culture growth inhibition, 72 h; type: cell-based, Plasmodium falciparum; settings: Plasmodium falciparum, read-out: Pf3D7 IC50(72h); P. falciparum 3D7, 72 h
Description: (1 picture or pasted object on this page, not shown here)
553 Sigma-Aldrich) for 48-72 h. For drug pulse assays, tightly synchronized parasites (1-1.5% parasitemia,
554 0.2% final hematocrit) were added to the plates and incubated for 3 h. Drugs were removed and the
555 parasitemia assessed in the trophozoite stage of the next cycle.
557 Compounds were tested against a range of drug resistant field isolates and laboratory strains using a
558 modified [3H]-hypoxanthine incorporation assay, as previously reported (46). Field isolates 7G8, Cam3.1,
559 Dd2, K1, TM90C2B and NF54 were obtained from MR4 (www.beiresources.org).
561 Mammalian cell culture experiments
562 The HepG2 (Human hepatocyte carcinoma) cell line was procured from ATCC (American Type
563 Culture Collection, Manassas, USA; HB-8065) and viability assessed using Cell Titer-GLO luminescent
564 cell viability assay reagents (Promega, catalogue number: G7570) (47, 48). For the assay, 2000 cells/well
565 were plated in 384-well plates 24 h prior to the experiment and incubated at 37°C in a CO2 incubator. The
566 medium was removed and cells were treated with fresh medium containing either vehicle (0.5% DMSO)
567 or serially diluted test compounds or doxorubicin (1.3 nM to 25 µM) in a final volume of 50 µl/well and
568 further incubated for 72 h at 37°C in a CO2 incubator.
569 were treated with 5 µl of 1% Triton X-100 (final assay conc. 0.1%). Following incubation, 25 µl of medium
570 was discarded and 25 µl of Cell Titer-GLO reagent was added to each well and the plate was kept on a plate
571 shaker for 15 min at 25°C with shaking at 300 rpm. Luminescence signals were measured in a Spectramax
572 M5 reader (Molecular Devices).
574 H1650 is a human lung cancer derived ATG7-null cell line (49) that can be used to assess effects on targets
576 adenocarcinoma; bronchoalveolar carcinoma). Other cells lines used are: H460 (NCI-H460; human lung;
577 carcinoma; large cell lung cancer; ATCC: HTB-177); and HCT116 (human colon; colorectal carcinoma;
578 ATCC: CCL-247; Lot : 5056139). Each of the cell lines was received from the American Type Culture
579 Collection (ATCC) and passaged twice before freezing. Cells were cultured in the presence or absence of
580 inhibitors and cell viability was assessed by comparing the ATP content in compound-treated wells with
581 that in DMSO-treated wells as previously described (11).
583 HeLa cells (human cervical adenocarcinoma; genome sequenced (Garvin Institute, Australia) and verified

PfYRS knockdown line = assay: Growth inhibition of aptamer-regulatable PfYRS knockdown line (luciferase, 72 h); type: cell-based, Plasmodium falciparum; settings: for IC50: Plasmodium falciparum, read-out: IC50 against the PfYRS knockdown line (control compounds)
Text: 674 Generation and analysis of PfYRS knock-down transfectants
675 A conditional regulatable line for the cytosolic PfYRS (PF3D7_0807900) was generated by integrating the
676 gene regulatable system, TetR-DOZI-RNA aptamer module at the 3'-end of the target gene, in P. falciparum
677 parasites using CRISPR-Cas9 and homology-driven repair (55, 56). A line harbourbing an aptamer-
678 regulatable fluorescent protein (eYFP) integrated in the cg6 locus is used as the control (55). Transfection
679 into parasites was carried out by preloading RBCs with the donor vector as described previously (57).
680 Briefly, 50 μg of purified plasmid DNA was mixed with human RBCs and subjected to 8 square wave
681 electroporation pulses of 365 V for 1 ms each, separated by 0.1 s in a 0.2 cm cuvette. The plasmid DNA
682 preloaded cells were inoculated with NF54 expressing Cas9 and T7 RNA polymerase. […]
696 Stock solutions of ML901, DHA or borrelidin (Cayman Chemicals) were dispensed into 96-well U-bottom
697 BD Falcon™ plates and serially diluted in complete medium to yield final concentrations ranging from 20-
698 0.08 nM. Synchronous ring-stage YRScyt conditional knockdown line and the aptamer-regulatable control
699 line in varying aTc concentrations (high = 50 or 500 nM, low = 1 nM, and no aTc) were distributed into
700 the drug plate. Lowest drug treatment and a lethal dose of chloroquine (200 nM) served as reference
701 controls. Growth inhibition was analysed after 72 h using the Renilla-Glo(R) Luciferase Assay System (ref
702 no E2750 Promega) and the GloMax® Discover Multimode Microplate Reader (Promega), and IC50 values
703 were obtained from corrected dose-response curves using GraphPad Prism (version 8; GraphPad Software). […]
706 CRISPR/Cas9 was used to generate parasites encoding the S234C mutation in exon 2 of PfYRS, as shown
707 in Suppl Figure 6. Two guide RNAs (gRNA1: […] and gRNA2:
708 […]) were selected using Benchling (benchling.com), and cloned into the
709 pDC2-coCas9-gRNA plasmid essentially as described previously (58). A donor template of 645 bp,
710 encompassing the majority of the 708 bp exon 2, was synthesized (ThermoFisher) and cloned into the
711 AatII/EcoRI sites of both the pDC2-coCas9-gRNA1 and pDC2-coCas9-gRNA2 plasmids. In addition to
712 the TCC>TGC (S234C) mutation, additional silent shield mutations were introduced to prevent gRNA-
713 Cas9 complex binding, as shown in Suppl Figure 6. Ring-stage P. falciparum parasites (Dd2 strain) at 10%
714 parasitemia (150 µL of packed cells) were transfected with 50 µg of plasmid DNA using a BioRad Gene
715 Pulser II (310 V, 950 µF), and selected with 5 nM WR99210 (Jacobus Pharmaceuticals) for 8 days, after
716 which culture was continued without drug pressure until transfectants were obtained. Clones of the
717 PfYRSS234C mutant parasites were isolated by limiting dilution and verified by Sanger sequencing.
719 Protein translation assay
720 P. falciparum Cam 3.II_Rev (25) schizont- (43-48 h p.i.) infected RBCs were pre-incubated with inhibitor
Using a modification of a published procedure (14), the
722 cells were labelled with O-propargyl-puromycin (OPP; 4 µM) for 1 h, washed 3x (PBS +3% serum) and
723 then fixed for 10 minutes (4% formaldehyde/0.02% glutaraldehyde in PBS). The click reaction was
724 performed for 1 h in the presence of CuSO4 (0.1 mM), THPTA (0.5 mM) and sodium ascorbate (5 mM) to
725 bring about azide-alkyne cycloaddition to Alexa Fluor 488 azide (0.1 µM). Flow cytometry was performed
726 using the FITC and Cy™5.5 channels to detect the Alexa Fluor 488 and PI, respectively.
729 Cam 3.II_Rev (25) trophozoite-infected RBCs (25-30 h p.i.) were incubated with inhibitor for 3 h at 10%
730 hematocrit and 5% parasitemia. The RBC pellet was washed 3 x in PBS + cOmplete. Cells were centrifuged
731 at 380 x g for 5 min and the pelleted cells lysed by resuspension in PBS + 0.05% saponin for 5 min on ice.

Chain of PfYRS (Q8IAR7 entry or part of it): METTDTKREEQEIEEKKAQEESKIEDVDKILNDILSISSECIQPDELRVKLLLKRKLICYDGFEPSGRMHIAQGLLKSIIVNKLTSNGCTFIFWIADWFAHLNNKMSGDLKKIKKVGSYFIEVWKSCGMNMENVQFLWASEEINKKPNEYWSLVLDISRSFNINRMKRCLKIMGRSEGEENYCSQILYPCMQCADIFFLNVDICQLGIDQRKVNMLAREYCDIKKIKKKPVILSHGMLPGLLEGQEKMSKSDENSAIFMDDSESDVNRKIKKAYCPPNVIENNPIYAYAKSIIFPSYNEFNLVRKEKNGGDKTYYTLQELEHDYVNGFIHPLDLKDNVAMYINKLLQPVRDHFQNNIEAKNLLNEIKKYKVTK

SMILES	Tm (PfYRS; PfYRS 2.3 μM, after incubation at 37°C for 3 h) [oC]	DTm (PfYRS; PfYRS, versus apo) [oC]	Kd (PfYRS; PfYRS, estimated from DSF by empirical correlation of DTm and KD, read-out: Apparent KD*) [nM]	Tm (PfYRSS234C; PfYRSS234C 2.3 μM, after incubation at 37°C for 3 h) [oC]	DTm (PfYRSS234C; PfYRSS234C, versus apo) [oC]	Kd (PfYRSS234C; PfYRSS234C, estimated from DSF by empirical correlation of DTm and KD, read-out: Apparent KD*) [nM]	Tm (HsYRS; HsYRS 2.3 μM, after incubation at 37°C for 3 h) [oC]	DTm (HsYRS; HsYRS, versus apo) [oC]	Kd (HsYRS; HsYRS, estimated from DSF by empirical correlation of DTm and KD, read-out: Apparent KD*) [nM]	IC50 (P. falciparum (3D7)) [nM]	IC50 (PfYRS knockdown line; high aTc (500 nM)) [nM]	IC50 (PfYRS knockdown line; low aTc (1 nM)) [nM]	IC50 (PfYRS knockdown line; no aTc) [nM]	Fold change in IC50 (high aTc/ no aTc), PfYRS knockdown line (control compounds) (PfYRS knockdown line; high aTc 500 nM)
Nc1ncnc2c1ncn2[C@@H]1O[C@H](COP(=O)(O)OC(=O)[C@@H](N)Cc2ccc(O)cc2)[C@@H](O)[C@H]1O [AMP-Tyr]	62.6 ± 0.2	12.4	2.2	57.1 ± 0.3	6.5	24	53.3 ± 0.2	2.8	116					
C[C@H]1[C@@H](O)O[C@@H]2O[C@@]3(C)CC[C@H]4[C@H](C)CC[C@@H]1[C@@]24OO3 [DHA, Dihydroartemisinin]										2.9 ± 0.2	1.1 ± 0.3	1.6 ± 0.5	1.2 ± 0.4	no change
